The values that follow come from patent US10426758B2, “Sibiriline derivatives for use for preventing and/or treating disorders associated with cellular necroptosis” (Institut National de la Sante et de la Recherche Medicale …, priority 2015, dated 2019).

The structures appear in SMILES notation.

The subject of this test is murine model of acute hepatitis (concanavalin A-induced hepatitis). As to the kind of experiment: Concanavalin A-induced acute hepatitis in mice. In kind it is in vivo, C57Bl/6 WT mice. As for the experimental part:
We use a murine model of acute hepatitis (concanavalin A-induced hepatitis) that depends on necroptosis induction (Jouan-Lanhouet et al. Semin. Cell. Dev. Biol. 2014, 35, 2-13). Sib is diluted in 50% PBS/50% DMSO.
C57Bl/6 WT mice were pre-treated or not with 3, 6 or 9 mg/kg Sib or 6.25 mg/kg Nec-1s injected by intraperitoneal route 1 hour before treatment or not with 12 mg/kg Con A for 10 h (intravenous route) (50% PBS/50% DMSO, n=5; 50% PBS/50% DMSO+Con A, n=5; 3 mg/kg Sib+Con A, n=5; 6 mg/kg Sib+Con A, n=5; 9 mg/kg Sib+Con A, n=5; 6.25 mg/kg Nec-1s+Con A, n=5).

For the compound `Oc1ccc(-c2cc3cccnc3[nH]2)cc1` [compound 2, 4-(1H-pyrrolo[2,3-b]pyridin-2-yl)phenol], the “AST and ALT levels and protection from Con A-induced hepatitis” value is “This protection is not observed” (Sib 9 mg/kg intraperitoneal 1 hour before 12 mg/kg Con A for 10 h); “has a tendency to decrease AST and ALT levels and to protect mice from Con A-induced hepatitis” (Sib 3 or 6 mg/kg intraperitoneal 1 hour before 12 mg/kg Con A for 10 h). For the same compound, the “serum aminotransaminases (ALT, AST) levels induced by ConA (figure legend)” value (dose of 3 mg/kg) is “decreases these serum transaminase levels”.
